# pKi: −log10 of the molar value. Like-named read-outs stand apart in the source and are kept apart here.
# Biological target: T1, Purine nucleoside phosphorylase (PNPase) (Homo sapiens, UniProt P00491)
# T1 construct: Purine nucleoside phosphorylase (PNPase) was purified from human erythrocytes; from tissue; host or cells: human erythrocytes
# T1 sequence (P00491 1-289): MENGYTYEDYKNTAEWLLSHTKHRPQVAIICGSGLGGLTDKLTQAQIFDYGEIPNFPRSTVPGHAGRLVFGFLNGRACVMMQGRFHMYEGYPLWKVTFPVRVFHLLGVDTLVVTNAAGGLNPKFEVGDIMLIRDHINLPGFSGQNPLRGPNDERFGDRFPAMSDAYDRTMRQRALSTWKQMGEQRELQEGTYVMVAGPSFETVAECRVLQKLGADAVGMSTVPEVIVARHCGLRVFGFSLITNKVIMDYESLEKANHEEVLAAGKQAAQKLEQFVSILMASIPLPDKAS
# Assay: Inhibition of purine nucleoside phosphorylase, spectrophotometric assay of inosine phosphorolysis coupled with xanthine oxidase
# Format: biochemical
# Protocol: Enzymology-Purine nucleoside phosphorylase (PNPase) was purified from human erythrocytes by the procedure of Agarwal et al (1). PNPase and xanthine oxidase were desalted before use (2). […] PNPase was assayed spectrophotometrically as previously described (2). In addition to PNPase, the reaction mixtures contained 0.1 mM inosine, 1 mM potassium phosphate, 100 mM Tris=HCl buffer (pH 7.5), 2µM ZnCl₂, and 0.2 U/ml of xanthine oxidase. […] The percent inhibition (%I) of PNP by a single concentration of inhibitor was measured (3).
# [1] = apparent inhibition constant calculated from percent inhibition at a single inhibitor concentration assuming competitive inhibition, PNPase from human erythrocytes, 0.1 mM inosine, 1 mM potassium phosphate, pH 7.5, 2µM ZnCl₂, read-out: Ki
pKi [1],Structure (SMILES),pKi
7.11,"Nc1nc(O)c2ncn(CCCCP(=O)(O)CP(=O)(O)O)c2n1 [Compound 2, (((4-(2-amino-1,6-dihydro-6-oxo-9H-purin-9-yl)butyl)phosphinico)methyl)phosphonic acid]",
8.35,"Nc1nc2c(ncn2CCCOCP(=O)(O)CP(=O)(O)O)c(=O)[nH]1 [Compound 6, ((((3-(2-amino-1,6-dihydro-6-oxo-9H-purine-9-yl)propoxy)methyl)phosphinico)methyl)phosphonic acid]",
8.08,"Nc1nc(O)c2ncn(CCCCCCCP(=O)(O)CP(=O)(O)O)c2n1 [Compound 4, (((7-(2-amino-1,6-dihydro-6-oxo-9H-purin-9-yl)heptyl)phosphinico)methyl)phosphonic acid]",
,"CCOP(=O)(O)CP(=O)(O)CCCCCn1cnc2c(O)nc(N)nc21 [Compound 5, ethyl hydrogen (((5-(2-amino-1,6-dihydro-6-oxo-9H-purin-9-yl)pentyl)phosphinico)methyl)phosphonate]",6.06
